Values of other authors as cited in patent US7803392B2, “pH-Sensitive mucoadhesive film-forming gels and wax-film composites suitable for topical and mucosal delivery of molecules” (University of Kentucky Research Foundation, priority 2000, dated 2010).

Tests used:
[1] = buccal administration of 5 mg midazolam
[2] = buccal 10 mg midazolam per 2 mL
[3] = subcutaneous injection twice a day for 8 days, patients

Question: With `Oc1cc(Cl)ccc1Oc1ccc(Cl)cc1Cl` [Triclosan, 2,4,4′-Trichloro 2′-hydroxy-diphenyl-ether 5-chloro 2-(2,4-dichlorophenoxy)-phenol] as the compound, how does the pKa read?
Answer: 7.9

Question: And the “solubility in alkaline solutions” value (alkaline solutions)?
Answer: readily soluble

Question: What about the solubility in ethanol (ethanol) of the same compound?
Answer: soluble

Question: What about the “solubility in polyethylene glycol 400” value (polyethylene glycol 400) of the same compound?
Answer: soluble

Question: What about the solubility in water (water) of the same compound?
Answer: insoluble

Question: For `Cc1ncc2n1-c1ccc(Cl)cc1C(c1ccccc1F)=NC2` [midazolam], which maximum plasma concentration [1] is on record?
Answer: 55.9 ng/mL

Question: And the mean bioavailability [1]?
Answer: 74.5%

Question: And the “time of maximum plasma concentration” value [1]?
Answer: 30 min

Question: What about the “average time to stop seizures after administration” value ([2]; children) of the same compound?
Answer: 6 min

Question: What about the seizures stopped ([2]; children (30/40 seizures)) of the same compound?
Answer: 75%

Question: With Hirudin as the compound, how does the “lower overall rate of deep-vein thrombosis than low molecular weight heparin” value [3] read?
Answer: ~30%
